Experimental data taken from patent publication US5633277A, “Sulfonamide aminomethylene derivatives as immunosuppressants” (Miles Inc., priority 1995, dated 1997).

Columns and labels:
FKBP = FKBP (Homo sapiens, UniProt P62942); assay: PPIase Inhibition Assay; assay type: biochemical
Procedure: 1) Inhibition of PPlase Activity
This assay follows in principle the procedure described in Kofron et al., 1991, Biochemistry 30:6127. The three main reagents used are PPIase, a substrate for PPIase, and a selected inhibitor compound of the present invention. The basic principle behind this assay is the conversion of the cis isomer of the substrate to the trans form, which conversion is catalyzed by PPIase. Essentially, inhibition of this PPIase activity is measured for the selected compounds. A peptide chymotrypsin substrate containing a proline in the P2 position is only cleaved by chymotrypsin when the Phe-Pro bond is in the trans isomeric configuration. In the presence of excess chymotrypsin, all of the trans peptide isomers are cleaved within approximately five seconds, leaving only cis forms.
The cis peptide will spontaneously convert to the trans isomer at a slow rate. The cis to trans conversion is catalyzed by isomerases at a much faster rate than this spontaneous conversion. Proteins with PPIase activity are examples of such isomerases. After isomerization, the peptide is cleaved by chymotrypsin releasing p-nitroaniline which can be monitored at 390 nm. The rate of release is then calculated using a first order rate plus offset equation utilizing the ENZFITTER program (Leatherbarrow, BIOSOFT, Cambridge, United Kingdom).
In a plastic cuvette are added 950 ul of ice cold assay buffer (25 mM HEPES, pH 7.8, 100 mM NaCl), 10 uL of FKBP (2.5 uM in 10 mM Tris-Cl pH 7.5,100 mM NACl, 1 mM dithiothreitol), 25 ul of chymotrypsin (50 mg/ml in 1 mM HCl) and 10 ul of the test compound at various concentrations in dimethyl sulphoxide. The reaction is initiated by addition of 5 ul of substrate (Succinyl-Ala-Phe-Pro-Phe-para-nitroanilide, 5 mg/ml in 235 mM LiCl in trifluoroethanol).
The absorbance at 390 nm versus time is monitored for 90 sec using a Beckman DU70 spectrophotometer. The absorbance versus time data files are transferred to an IBM XT computer and the rate constants determined using the commercial Enzfitter program. For each set of data, the uncatalyzed rate of conversion is measured and the uninhibited enzymatic rate determined. The data are expressed as % Inhibition and are calculated as follows: [formula] where kobs is the rate in the presence of a selected test compound, kuncat is the rate in the absence of enzyme, and kuninh is the rate in the presence of enzyme and absence of inhibitor. Data are plotted as percent inhibition versus concentration of inhibitor. The values of the concentration of inhibitor required for 50% inhibition of enzyme activity (IC50) were determined by nonlinear least squares regression analysis.

human T-cells = assay: Suppression of Human T-Cell Proliferation Assay (mitogen-induced, [3H]-thymidine incorporation); assay type: cell-based; settings: Homo sapiens, T-cell; 72 hours incubation; mitogen stimulated; read-out: IC50 (inhibition of [3H]-thymidine incorporation of T-cells by 50%)
Source text: 2) Human T Lymphocyte Inhibition
Inhibition of mitogen-induced T-cell proliferation can be used to profile immunosuppressive activity of test compounds. In the description of the assay which follows, mitogen-induced T-cell proliferation was used to test the inhibitory potencies of select compounds of the present invention.
In an assay similar to that described by Bradley in Mishell et al. (Eds.), 1980, Selected Methods in Cellular Immunology, pp 156-161, W. H. Freeman & Co., San Fransisco, Calif., T-cells were stimulated by incubation with phytohemagglutinin (PPIA) which binds to cell surface molecules, including the T-cell receptor. This stimulation results in proliferation which can be measured by incorporation of [^3 H]-thymidine into cellular DNA.
The immunosuppressive properties of the compounds of the present invention can be determined by adding various concentrations of the compounds to these cultures and measuring the effect on T-cell proliferation.
Suppression of Human T-Cell Proliferation Assay
Fresh LeukoPaks were obtained from the New York Blood Center, New York, N.Y. The cells, including erythrocytes and leukocytes, were diluted with Hank's Balanced Salt Solution (HBSS) (GIBCO, Grand Island, N.Y.) and layered over Lymphoprep (Nycomed Pharma AS, Oslo, Norway) in sterile 50 ml conical centrifuge tubes. Lymphocytes were isolated at the Hank's/Nycomed interface after centrifugation at 2000×g, 4° C. for 15 min. The lymphocytes were washed with Minimal Essential Medium (GIBCO) containing 2% fetal bovine serum (FBS) (Sigma Chemical Co., St. Louis, Mo.), 1% HEPES buffer (GIBCO) and 1% Penicillin-Stretomycin solution (GIBCO).
T-cells were further purified essentially by sheep erythrocyte (SRBC) rosetting as described by Morimoto et al., 1983, J. Immunol. 130:157. The isolated lymphocytes were adjusted to 2×10^7 cells/ml and 5 ml aliquots of the cell suspension were incubated for 10 minutes at room temperature with 5 ml of a 5% SRBC (Cappel, Organon Technika Corp., West Chester, Pa.) suspension. The cells were gently pelleted by centrifugation at 300 rpm for 10 minutes, followed by a 1 hour incubation at room temperature to allow rosette formation. The cells were gently resuspended,layered over Lymphoprep and centrifuged for 30 minutes at 500×g. The pellet, containing rosetted T-cells and SRBC was treated with ice cold buffered ammonium chloride (GIBCO) to lyse the erythrocytes. T-cells were washed twice with HBSS.
Purified T-cells were resuspended at 2×10^6 cells/ml in complete culture medium composed of RPMI-1640 (Whittaker Bioproducts, Walkerville, Md.) with 10% FBS (Sigma), 2 mM L-glutamine (GIBCO), 1% Penicillin-Streptomycin (GIBCO) and 15 mM HEPES (GIBCO). In 96-well plates (Becton Dickinson, Lincoln Park, N.J.), 0.1 ml aliquots of T-cell suspension were mixed with 0.05 ml of 40 μg/ml PPIA-M (Sigma). The compounds of this invention were dissolved in dimethylsulfoxide at 10 mM and various dilutions in complete medium were added in duplicate wells (0.05 ml/well). The plates were incubated at 37° C. in a humidified atmosphere of 5% carbon dioxide and 95% air for 72 hours.
Proliferation was assessed by measurement of [3H]-thymidine incorporation. During the last 6 hours of incubation, the cells were pulse labelled with 1 μCi/well of [3H]-thymidine (New England Nuclear, Boston, Mass.). The cells were harvested onto glass fiber paper using a plate harvester and the radioactivity incorporated into cellular DNA corresponding to individual wells was measured by standard liquid scintillation counting methods. The mean counts per minute (CPM) of replicate wells was calculated and linear regression analysis of mean CPM versus compound concentration was used to determine the concentration of compound which would inhibit [^3 H]-thymidine incorporation of T-cells by 50% (IC50).

dogs = settings: Collier et al., 1988; cited from earlier work
NF-AT = settings: Schreiber and Crabtree, 1992; cited from earlier work
IL-2 production = settings: cited from earlier work
[1] = tested on: FK506 binding protein (FKBP); settings: cited from earlier work
baboons = settings: Collier et al., 1988; cited from earlier work
transplant patients = settings: cited from earlier work

Chain of FKBP (P62942 whole entry): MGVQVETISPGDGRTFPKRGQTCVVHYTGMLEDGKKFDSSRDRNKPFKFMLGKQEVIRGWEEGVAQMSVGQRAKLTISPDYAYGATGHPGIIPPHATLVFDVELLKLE

Row | SMILES | IC50 (FKBP) [µM] | IC50 (human T-cells) [µM] | vasculitis (dogs) | NF-AT activity (in words) (NF-AT) | IL-2 production (in words) (IL-2 production) | binding to FKBP (in words) [1] | vasculitis (baboons) | effectiveness in transplant patients who do not respond to CsA (transplant patients; Tucci et al., 1989) | absolute rate of clinical rejection vs current standard therapies (transplant patients; post-organ transplantation patients, Holechek, 1991)
1 | CC(C)C[C@@H](CN1CCC[C@H]1C(=O)NCCCCc1ccccc1)NS(=O)(=O)CS(C)(=O)=O [Example 9, 1-[2-(S)-(Methylsulfonylmethanesulfonylamino)-4-methylpentyl]-L-proline 4-Phenylbutylamide] | > 5 | 4 | – | – | – | – | – | – | –
2 | C=CC[C@@H]1/C=C(\C)C[C@H](C)C[C@H](OC)[C@H]2O[C@@](O)(C(=O)C(=O)N3CCCC[C@H]3C(=O)O[C@H](/C(C)=C/[C@@H]3CC[C@@H](O)[C@H](OC)C3)[C@H](C)[C@@H](O)CC1=O)[C@H](C)C[C@@H]2OC [FK506] | – | – | severe vasculitis | inhibited | inhibit IL-2 production | bound | severe vasculitis | effective in some transplant patients who do not respond to CsA | only slightly lower than with current standard therapies
